Results: patent publication US20260184697A1, “EZH1/2 INHIBITOR, PREPARATION THEREOF, AND USE THEREOF IN ANTI-TUMOR THERAPY” (JIANGSU TASLY DIYI PHARMACEUTICAL CO., LTD., priority 2022, published 2026)
Like-named read-outs stand apart in the source and are kept apart here.

Key:
EZH2/SUZ/EED = biological target: T1, EZH2/SUZ/EED (Homo sapiens, UniProt O75530+Q15022+Q15910); experiment: Inhibitory effect on EZH2 by the MTase-Glo method (Test Example 1); format: biochemical; conditions: EZH2/SUZ/EED 6.25 nM, H3 peptide 10 μM, SAM 3 μM, 30° C. 3 h, read-out: Test Example 1 WT EZH2 IC50
T1 construct: purchased BPS 51003
T1 sequence (Q15910 2-746 limits assumed): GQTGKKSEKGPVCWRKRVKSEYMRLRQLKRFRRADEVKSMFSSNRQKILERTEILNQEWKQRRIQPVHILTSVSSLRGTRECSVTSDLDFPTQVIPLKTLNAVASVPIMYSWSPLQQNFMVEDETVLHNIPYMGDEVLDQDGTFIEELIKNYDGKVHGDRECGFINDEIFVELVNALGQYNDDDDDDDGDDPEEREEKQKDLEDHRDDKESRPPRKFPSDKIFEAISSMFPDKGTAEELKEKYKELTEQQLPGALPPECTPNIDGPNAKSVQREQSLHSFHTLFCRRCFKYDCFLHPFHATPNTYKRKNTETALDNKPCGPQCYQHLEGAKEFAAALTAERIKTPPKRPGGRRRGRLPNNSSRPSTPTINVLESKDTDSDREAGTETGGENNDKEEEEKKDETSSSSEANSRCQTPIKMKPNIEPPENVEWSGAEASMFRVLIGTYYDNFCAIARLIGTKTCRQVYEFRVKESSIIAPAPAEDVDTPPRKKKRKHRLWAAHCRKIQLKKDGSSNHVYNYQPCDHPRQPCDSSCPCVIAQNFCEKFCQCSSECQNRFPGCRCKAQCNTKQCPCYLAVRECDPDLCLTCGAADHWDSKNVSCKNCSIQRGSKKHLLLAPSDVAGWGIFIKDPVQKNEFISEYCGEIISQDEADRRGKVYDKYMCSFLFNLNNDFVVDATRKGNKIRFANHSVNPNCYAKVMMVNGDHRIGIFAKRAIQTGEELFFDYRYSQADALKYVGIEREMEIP
T1 sequence (Q15022 2-739 partner limits assumed): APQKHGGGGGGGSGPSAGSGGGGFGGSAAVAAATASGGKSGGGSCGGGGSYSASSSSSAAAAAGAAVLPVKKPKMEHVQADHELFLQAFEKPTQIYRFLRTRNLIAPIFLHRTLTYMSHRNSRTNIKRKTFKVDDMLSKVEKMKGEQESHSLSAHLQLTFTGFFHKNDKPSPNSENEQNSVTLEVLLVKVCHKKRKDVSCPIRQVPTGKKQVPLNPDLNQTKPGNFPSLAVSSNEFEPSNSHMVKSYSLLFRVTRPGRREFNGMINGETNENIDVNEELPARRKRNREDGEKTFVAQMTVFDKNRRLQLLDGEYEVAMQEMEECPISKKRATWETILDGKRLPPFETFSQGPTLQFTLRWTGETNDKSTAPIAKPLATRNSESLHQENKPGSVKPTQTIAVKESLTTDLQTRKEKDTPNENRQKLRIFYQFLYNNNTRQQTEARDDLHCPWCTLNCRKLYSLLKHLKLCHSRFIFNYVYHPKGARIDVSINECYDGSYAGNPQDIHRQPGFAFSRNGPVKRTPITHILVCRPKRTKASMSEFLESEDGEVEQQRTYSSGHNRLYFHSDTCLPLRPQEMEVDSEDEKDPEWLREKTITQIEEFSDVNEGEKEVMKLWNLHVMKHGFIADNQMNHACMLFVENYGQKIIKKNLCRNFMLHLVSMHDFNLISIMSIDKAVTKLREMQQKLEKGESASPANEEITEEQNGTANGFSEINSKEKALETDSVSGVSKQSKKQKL
T1 sequence (O75530 2-441 partner limits assumed): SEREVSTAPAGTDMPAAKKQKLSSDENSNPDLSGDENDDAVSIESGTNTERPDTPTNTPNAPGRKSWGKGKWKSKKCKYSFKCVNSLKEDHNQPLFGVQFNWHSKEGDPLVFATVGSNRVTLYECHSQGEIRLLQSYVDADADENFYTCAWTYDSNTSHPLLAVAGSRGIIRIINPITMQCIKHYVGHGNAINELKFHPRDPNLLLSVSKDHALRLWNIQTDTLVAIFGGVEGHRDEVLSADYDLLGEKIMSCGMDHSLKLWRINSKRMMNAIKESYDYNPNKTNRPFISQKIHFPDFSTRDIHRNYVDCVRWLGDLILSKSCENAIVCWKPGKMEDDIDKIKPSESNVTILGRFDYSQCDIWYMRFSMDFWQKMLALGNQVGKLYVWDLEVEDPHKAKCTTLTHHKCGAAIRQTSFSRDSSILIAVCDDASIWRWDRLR
In short: (§1)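 EZH2/SUZ/EED (6.25 nM) or EZH1/SUZ/EED (25 nM) pre-incubated 15 min with compound in pH 7.6 Bicine buffer, 0.5% DMSO. Biotinylated H3(21-44) peptide 10 μM plus SAM 3 μM reacted 3 h at 30 °C; MTase-Glo luminescence normalized to controls, IC50 from variable-slope fit.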

EZH1/SUZ/EED = biological target: T2, EZH1/SUZ/EED (Homo sapiens, UniProt O75530+Q15022+Q92800); experiment: Inhibitory effect on EZH1 by the MTase-Glo method (Test Example 1); format: biochemical; conditions: EZH1/SUZ/EED 25 nM, H3 peptide 10 μM, SAM 3 μM, 30° C. 3 h, read-out: Test Example 1 WT EZH1 IC50
T2 construct: purchased BPS 51006
T2 sequence (Q92800 2-747 limits assumed): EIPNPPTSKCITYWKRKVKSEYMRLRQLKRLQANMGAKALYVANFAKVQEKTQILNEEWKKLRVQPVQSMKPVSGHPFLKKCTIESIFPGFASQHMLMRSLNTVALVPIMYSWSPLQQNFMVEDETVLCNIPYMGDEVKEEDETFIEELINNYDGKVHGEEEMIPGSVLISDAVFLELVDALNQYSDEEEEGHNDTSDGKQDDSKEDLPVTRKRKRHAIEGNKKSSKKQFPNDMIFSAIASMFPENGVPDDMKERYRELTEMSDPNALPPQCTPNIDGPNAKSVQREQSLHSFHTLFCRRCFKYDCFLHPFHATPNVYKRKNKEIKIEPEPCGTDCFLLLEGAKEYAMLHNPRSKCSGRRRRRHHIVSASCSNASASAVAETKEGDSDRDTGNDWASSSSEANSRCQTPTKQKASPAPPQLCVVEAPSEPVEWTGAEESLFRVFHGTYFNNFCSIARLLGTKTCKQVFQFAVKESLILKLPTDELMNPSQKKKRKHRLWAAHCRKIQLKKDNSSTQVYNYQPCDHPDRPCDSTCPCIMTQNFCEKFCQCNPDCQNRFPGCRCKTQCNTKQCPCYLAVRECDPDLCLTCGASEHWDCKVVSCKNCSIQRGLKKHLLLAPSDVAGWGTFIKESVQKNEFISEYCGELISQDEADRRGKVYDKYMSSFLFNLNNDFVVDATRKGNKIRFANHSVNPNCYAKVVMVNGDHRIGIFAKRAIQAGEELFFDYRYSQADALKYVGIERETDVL
T2 sequence (Q15022 2-739 partner limits assumed): as the sequence (Q15022 2-739 partner limits assumed) above
T2 sequence (O75530 2-441 partner limits assumed): as the sequence (O75530 2-441 partner limits assumed) above
In short: as §1

[1] = system: H3K27Me3 methylation in Karpas-422 cells; experiment: H3K27Me3 cell method, inhibition of H3K27Me3 methylation (Test Example 2); format: cell-based, human
In short: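 Karpas-422 cells, 15,000/well in 80% RPMI 1640 + 20% FBS, treated with compound dilutions (final DMSO 0.2%) for 3 days at 37 °C, 5% CO2. Cellular H3K27Me3 read by HTRF; viability in parallel by CCK8 at OD405. IC50 from log(inhibitor)-response variable-slope fit of inhibition rate.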

Karpas-422 cells = experiment: Anti-proliferation by Cell Titer-Glo method (Test Example 3); format: cell-based; conditions: Homo sapiens
Procedure: Karpas-422 (Nanjing Kebai, CBP60629) cells were seeded in a 96-well plate (Corning, 3894) at 1,000 cells per well in growth medium (80% 1640 (Hyclone, SH30809.01)+20% FBS (Corning, 35-081-CV)), in a total of 100 μL, and then was added with 25 μL of 5-fold different concentrations of compounds diluted in growth medium. The cell growth group without compound addition was used as a positive control (maximum signal control), and the medium was used as a negative control (minimum signal control), while ensuring that the final contration of DMSO in each reaction well was 0.2%. Then the 96-well cell plate was placed in a cell culture incubator (37° C., 5% CO2) and incubated for 3 days. On the fourth day, the cell culture plate was taken out of the incubator, using a row gun to gently blow the cells up and down to mix, removing 62.5 μL of the cell suspension, adding 50 μL of growth medium and 12.5 μL of compounds of 5 times different concentrations, and then putting them in the cell incubator to incubate for 4 days. On the eighth day, the same method was used as the fourth day to treat the cells, then incubating in the cell culture incubator for 3 days. On the eleventh day, the Cell-Titer Glo (Promega, G7573) was used to detect cell viability, and a microplate reader was used to detect the signal value of luminescence.
The inhibition rate of different concentrations of compounds on cells was calculated as inhibition rate=[1−(compound signal value−negative control signal value)/(positive control signal value-negative control signal value)][…]. The IC50 of the compound on cell activity inhibition was calculated by GraphPad Prism 6 with log(inhibitor) vs. response-Variable slope model fitting. The fitting equation is: Y=Bottom+(Top−Bottom)/(1+10^((Log IC50−X)*Hill Slope)), wherein Y represents the inhibition rate, and X represents the known concentration of the compound after Log.

[2] = Karpas-422 cells, Cell-Titer Glo on the eleventh day, read-out: Test Example 3 Karpas-422 cell anti-proliferation IC50
[3] = Homo sapiens, KARPAS-422, 72 h, Karpas-422 cells, 3 days incubation, HTRF signal, read-out: Test Example 2 H3K27Me3 inhibition (Karpas-422) IC50

| IC50 (EZH2/SUZ/EED) | IC50 (EZH1/SUZ/EED) | IC50 ([1]; Karpas-422 cells, 3 days incubation, HTRF signal, read-out: Test Example 2 H3K27Me3 inhibition (Karpas-422) IC50) | IC50 (Karpas-422 cells; [2]) | IC50 [1, 3] | SMILES | IC50 ([1]; Homo sapiens, KARPAS-422, 72 h, read-out: Test Example 2 H3K27Me3 inhibition (Karpas-422) IC50(nM)) | IC50 (Karpas-422 cells; KARPAS-422, read-out: Test Example 3 Karpas-422 cell anti-proliferation IC50(nM)) |
| --- | --- | --- | --- | --- | --- | --- | --- |
| 4.5 nM | 150 nM |  | 47.3 nM | 19.4 nM | Cc1cc(C)c(CNC(=O)c2cc(Cl)c3c(c2C)OC[C@@H]([C@H]2CC[C@@H](N(C)C)CC2)O3)c(=O)[nH]1 [Compound 55] |  |  |
| 250 nM | 400 nM |  | > 1000 nM | > 1000 nM | Cc1cc(C)c(CNC(=O)c2cc(Cl)c3c(c2C)O[C@H]([C@H]2CC[C@@H](N(C)C)CC2)CO3)c(=O)[nH]1 [Compound 54] |  |  |
| 340 nM | 810 nM |  | > 1000 nM | 944 nM | Cc1cc(C)c(CNC(=O)c2cc(Cl)c3c(c2C)OC[C@H]([C@H]2CC[C@@H](N(C)C)CC2)O3)c(=O)[nH]1 [Compound 56] |  |  |
| 3 nM | 26.8 nM |  | 14.1 nM | 5 nM | Cc1cc(C)c(CNC(=O)c2cc(Cl)c3c(c2C)O[C@@H](C2CCC(N(C)C)CC2)CO3)c(=O)[nH]1 (stereo partly drawn) [Compound 53] |  |  |
| 3.9 nM | 88.5 nM |  | 42.4 nM | 31.2 nM | Cc1cc(C)c(CNC(=O)c2cc(Cl)c3c(c2C)OC(C2CCC(N(C)C)CC2)CO3)c(=O)[nH]1 (stereo not drawn) [Compound 2] |  |  |

Further lines, the molecule ahead of its results:

| SMILES | IC50 (EZH2/SUZ/EED) | IC50 (EZH1/SUZ/EED) | IC50 ([1]; Karpas-422 cells, 3 days incubation, HTRF signal, read-out: Test Example 2 H3K27Me3 inhibition (Karpas-422) IC50) | IC50 (Karpas-422 cells; [2]) | IC50 [1, 3] | IC50 ([1]; Homo sapiens, KARPAS-422, 72 h, read-out: Test Example 2 H3K27Me3 inhibition (Karpas-422) IC50(nM)) | IC50 (Karpas-422 cells; KARPAS-422, read-out: Test Example 3 Karpas-422 cell anti-proliferation IC50(nM)) |
| --- | --- | --- | --- | --- | --- | --- | --- |
| COC1CN(C2CCC(C3COc4c(Cl)cc(C(=O)NCc5c(C)cc(C)[nH]c5=O)c(C)c4O3)CC2)C1 (single isomer, unassigned) [Compound 61] | 8.8 nM | 162 nM | 73.8 nM | 93.8 nM |  |  |  |
| CSc1cc(C)[nH]c(=O)c1CNC(=O)c1cc(Cl)c2c(c1C)OC(C1CCC(N(C)C)CC1)CO2 (stereo not drawn) [Compound 3] | 3.3 nM | 4.4 nM |  | 7.6 nM | 2.1 nM |  |  |
| CSc1cc(C)[nH]c(=O)c1CNC(=O)c1cc(Cl)c2c(c1C)O[C@@H]([C@H]1CC[C@@H](N3CCN(C)CC3)CC1)CO2 [Compound 18] | 3.5 nM | 7.4 nM |  | 17.7 nM | 22.8 nM |  |  |
| COc1cc(C)[nH]c(=O)c1CNC(=O)c1cc(Cl)c2c(c1C)OC(C1CCC(N(C)C)CC1)CO2 (stereo not drawn) [Compound 5] | 2.3 nM | 26 nM |  | 23.2 nM | 7.9 nM |  |  |
| CSc1cc(C)[nH]c(=O)c1CNC(=O)c1cc(Cl)c2c(c1C)O[C@@H]([C@H]1CC[C@H](N3CCN(C)CC3)CC1)CO2 [Compound 19] | 3.4 nM | 26.3 nM |  | 89.5 nM | 284 nM |  |  |
| Cc1cc(C)c(CNC(=O)c2cc(Cl)c3c(c2C)OC(C2CCC(N4CCCC4)CC2)CO3)c(=O)[nH]1 (stereo not drawn) [Compound 63] | 11.5 nM | 375 nM |  | 341 nM | 616 nM |  |  |
| COc1cc(C)[nH]c(=O)c1CNC(=O)c1cc(Cl)c2c(c1C)O[C@@H]([C@H]1CC[C@@H](N3CC(OCCF)C3)CC1)CO2 [Compound 109] | 2 nM | 3.8 nM |  | 2.5 nM | 1.8 nM |  |  |
| COc1cc(C)[nH]c(=O)c1CNC(=O)c1cc(Cl)c2c(c1C)O[C@@H]([C@H]1CC[C@@H](N(C)C)CC1)CO2 [Compound 94] | 3 nM | 8.1 nM |  | 5.1 nM | 2.8 nM |  |  |
| Cc1cc(C)c(CNC(=O)c2cc(Cl)c3c(c2Cl)O[C@@H]([C@H]2CC[C@@H](N(C)C)CC2)CO3)c(=O)[nH]1 [Compound 143] | 5.5 nM | 39.9 nM |  |  |  | 22 nM | 10.7 nM |
| COC1CN([C@H]2CC[C@@H]([C@H]3COc4c(Cl)cc(C(=O)NCc5c(Cl)cc(C)[nH]c5=O)c(C)c4O3)CC2)C1 [Compound 175] | 3.4 nM | 16.6 nM |  | 13.6 nM | 16.1 nM |  |  |
